Laboratory results taken from PMC6511062, “Preclinical candidate for the treatment of visceral leishmaniasis that acts through proteasome inhibition” (Proceedings of the National Academy of Sciences of the …, 2019).
Values after ≈ are worked out from the molar mass of the structure shown. “Also recorded” adds a separate entry of the source. Read-outs that look alike come from different tables or passages of the source.

How the values were obtained:
[1] = Intrinsic clearance in mouse liver microsomes; assay type: in vitro ADME
Protocol: page 13: 4. Parasite assays T. cruzi4, Leishmania donovani axenic amastigote, cidal axenic amastigote and intra- macrophage drug sensitivity assays were conducted as previously described5,6. a. […] Instead of a single readout at 72 h, multiple identical plates were used and read at different time points (24, 48, 72 h). Rate of kill curves showing the luminescence signal at each time point for each concentration were plotted. 5. […] The rate of intrinsic clearance (CLint) of each test compound was then calculated using the following calculation: CLint(mL/min/g liver) = k x V x Microsomal protein yield Where V (mL/mg protein) is the incubation volume/mg protein added and microsomal protein yield is taken as 52.5 mg protein/g liver. Verapamil (0.5 μM) was used as a positive control to confirm acceptable assay performance. 6. Pharmacokinetic studies. a. Mouse and dog PK Mouse pharmacokinetic studies were conducted in male CD-1 mice and male beagle dogs. 3 animals per group were used for each study performed. A dose of 3 mg/kg was administered intravenously, in a bolus form to mice and infused over a 30 min period to dogs. For all the intravenous studies compound were dissolved in 5% DMSO/20% kleptose in saline. A dose of 10 mg/kg was orally administered by gavage to the two species in a suspension of 1% methylcellulose to investigate oral pharmacokinetics. S13

THP-1 cells = assay: Mammalian cell growth inhibition (THP-1); assay type: cell-based; settings: Homo sapiens
From the text: We hypothesized that, in view of their structural similarity, 1 and 2 probably shared the same mechanism of action.

[2] = tested on: L. donovani intramacrophage amastigotes; assay: L. donovani intramacrophage assay (amastigotes in differentiated THP-1 cells); assay type: cell-based, Leishmania donovani; settings: Leishmania donovani
Protocol: (§1) T. cruzi4, Leishmania donovani axenic amastigote, cidal axenic amastigote and intra-
(§2) macrophage drug sensitivity assays were conducted as previously described5,6. […]
(§3) 5. Intrinsic clearance (CLint) […]
(§4) 6. Pharmacokinetic studies. […]

[3] = CAD (charged aerosol detector) solubility
Trypanosoma cruzi = assay: T. cruzi phenotypic screening assay; assay type: cell-based; settings: phenotypic screen, read-out: EC50 against T. cruzi
Protocol: as §1, §2, §3, §4

[4] = tested on: Salmonella typhimurium TA1535, TA1537, TA98, TA100 and Escherichia coli WP2uvrA(pKM101); assay: Bacterial mutation screening assay (Ames test), overall outcome; assay type: cell-based; settings: presence and absence of S9-mix
Protocol: i. Bacterial Mutation (Ames) Assay
Compound 6 was tested in a bacterial mutation screening assay (Ames test) with Salmonella typhimurium TA1535, TA1537, TA98, TA100 and Escherichia coli WP2uvrA(pKM101) in the presence and absence of an exogenous mammalian oxidative metabolism system (S9-mix). The maximum concentration tested and […]
Compound 6a was tested in a bacterial mutation screening assay (Ames test) with […]
Compound 7a was tested in a bacterial mutation screening assay (Ames test) with […]
The bacterial mutation screening assay was a plate incorporation test carried out as previously described15 and according to current methodology. […]

[5] = Solubility in fasted simulated intestinal fluid (FaSSIF); settings: fassif
[6] = tested on: chymotrypsin-like activity of the L. donovani proteasome; assay: biochemical; set-up: species or system Leishmania donovani; settings: lysates from RES II and WT parasites
Protocol: An in vitro assay was developed that enabled the chymotrypsin-like activity and additional proteolytic activities associated with the proteasome to be directly monitored within proteasome-enriched parasite cell lysates. Likewise, human proteasome from two sources (i.e., commercially pure 26S and enriched proteasome fractions from THP-1 lysates) was tested using the same biochemical assays.
Proteasome enrichment by ultracentrifugation
The protocol described by Kisselev et al.34 was adapted to enrich the proteasomes present in L. donovani and THP1 crude extracts. L. donovani or THP1 cells were resuspended in sucrose buffer (50 mM Tris buffer pH 7.5, 5 mM Magnesium chloride, 1 mM EDTA, 50 mM NaCl, 250 mM sucrose, 2 mM ATP, 1 mM DTT) and lysed by nitrogen cavitation for 15 min (110 bars of 1500 psi). Lysates were centrifuged at 20,000g for 30 min at 4 °C and supernatants containing soluble protein were subjected to an ultracentrifugation step at 300,000g for 2h at 4 °C. The resulting proteasome-containing pellets were resuspended in sucrose buffer and left on ice for 30 min to complete solubilization. Samples were centrifuged for 10 min at 20,000 g to remove insoluble material. Proteins contained in supernatant (proteasome enriched fraction) were measured by Bradford.
Proteasome activity assays
Compounds were dispensed into black 384-well assay plates (Greiner) by acoustic dispensing (LabCyte ECHO). For potency determinations, eleven-point, one in three dilution curves were generated, with a top concentration of 100 µM. Three proteasome activities were measured using a commercially available indirect enzyme-based luminescent assay kit (Promega) with Suc-LLVY-aminoluciferin, Z-LRR-aminoluciferin and Z-nLPnLD-aminoluciferin used as substrates for chymotrypsin-like, trypsin-like and caspase-like activities, respectively. In addition to proteasome samples: L. donovani and THP1-enriched proteasomes, commercially available human purified 26S proteasome (Boston Biochem) was also assessed.

[7] = tested on: L. donovani promastigotes; assay: microbe, parasite or virus in culture; assay type: cell-based, Leishmania donovani; settings: Leishmania donovani
Protocol: 9. Mode of action studies a. Cell lines and culture conditions […]
c. Generation of drug-resistant parasites […]
donovani in the continuous presence of this compound. Starting at a sub-lethal […]
After a total of 120 days in
Genomic DNA was harvested from three independently generated L. donovani resistant clones and an age match control, as previously described27. PCR was performed using Platinum PCR Supermix (Invitrogen), as per manufacturer’s […]
generated using primers SubunitB4FW and SubunitB4RV, then sequenced using primer SubunitB4FW (Table S6). To sequence the β5 subunit (LdBPK_361730.1), an […]
sequenced using primer SubunitB5FW. PCR amplification and DNA sequencing were performed in triplicate for each independently generated cell line. The Leishmania donovani BPK282A1 sequences of the two subunits were identified in TriTrypDB and […]
e. Generation of overexpression constructs and LdBOB transgenic cell lines The genes encoding the mutated versions of the β4 (LdBPK_360340.1) and the β5 […]
parasites, were synthesised (GeneArt, Thermo Fischer Scientific). The synthetic genes, flanked by BamHI sites were cloned into the equivalent site of pIR1-SAT. The accuracy of all assembled constructs was verified by sequencing.
Mid-log-phase L. donovani promastigotes (LdBOB) were transfected with overexpression constructs using the Human T-Cell Nucleofector kit and the Amaxa Nucleofector electroporator (program V-033). Following transfection, cells were […]
to appropriate drug selection (100 µg/mL nourseothricin). Cloned cell lines were […]
selection for one passage prior to experiments. […]

[8] = tested on: L. donovani proteasome β subunits; assay: Activity-based probe (UbiQ-018) labelling of L. donovani proteasome; assay type: binding, Leishmania donovani; settings: 100 µM
Protocol: m. Activity-Based Probe Labelling of THP1 and L. donovani proteasome
Proteasome enriched fractions from THP1 (20 µg), L. donovani (10 µg) and L. donovani […]
µM for 1 h. Proteasome enriched fractions were also incubated with DMSO as control.
For all proteasome labelling experiments, the active-site probe Me4BodipyFL-Ahx3Leu3VS (UbiQ-018) was used at final concentration of 500 nM in sucrose buffer (50 mM Tris buffer pH 7.5, 5 mM magnesium chloride, 1 mM EDTA, 50 mM NaCl, 250 mM sucrose, 2 mM ATP, 1 mM DTT). Proteasome enriched fractions treated with […]
DMSO or test compounds, were incubated with the probe for 2h at RT. Samples were then denatured by addition of Laemmli sample buffer, heated to 95°C for 10 min and separated by electrophoresis on a 15% SDS-PAGE acrylamide gel. Following separation, gels were scanned in the fluorescein channel of a ChemiDoc reader (λ excitation/emission = 480/530 nm). Fluorescent proteins were excised and MALDI– TOF analysis carried out by the FingerPrints Proteomics service at the University of […]
10. Measuring Proteolytic activity of Leishmania tarentolae Proteasome […]
pre-prepared as a 10 mM stocks in 100 % DMSO and then diluted 1 in 3, over 11 points, prior to dispense of 100 nl of each dilution series into black, low volume, 384-well microplates. Proteasome was prepared as a 0.5 µg/mL working solution in assay buffer (50 mM HEPES (pH 7.5), 150 mM NaCl, 5 mM MgCl2, 5% glycerol, 1 mM CHAPS) and 5 µL was added using a Multidrop Micro (Thermo Fisher Scientific) to all wells containing compound dilutions on the test microplates. The microplates were then centrifuged for 1 min at 1000 rpm and incubated for 15 mins at 25 °C, prior to an assay initiating addition of 5 µl of fluorogenic substrate, which had been prepared as a 1 µM […]
The assay microplates were then centrifuged for 10 secs before using a Tecan M1000 Pro to monitor the increase of fluorescent intensity at 25 °C by excitation of the liberated Rhodamine110 at 485 nm and emission at 535 nm every 125 secs for 20 cycles. […]
calculate initial rates of reactions for all assay wells on the microplate by fitting to a linear regression model. The initial rates of reaction for all compound concentrations tested were normalised to the initial rates determined for 16 replicate control wells per microplate of both uninhibited reaction and no-proteasome background, and subsequently, IC50 values were determined by fitting the normalised data to the following four-parameter logistic model; y = a + (( b – a) / ( 1 + ( 10 ^ x / 10 ^ c ) ^ d ), where ‘a’ is the minimum, ‘b’ is […], ‘c’ is the IC50 and ‘d’ is […].
11. Cryo-EM of 20S Leishmania tarentolae proteasome a. Purification of 20S Leishmania tarentolae proteasome. […]

[9] = tested on: human proteasome catalytic subunits (THP-1 extracts); assay: Activity-based probe (UbiQ-018) labelling of THP-1 proteasome; assay type: binding; settings: human THP-1 extracts, 100 µM
L. donovani (LV9) [10] = assay: Mouse model of VL (in vivo efficacy in female Balb/C mice); set-up: species or system Leishmania donovani; settings: 30 mg/kg u.i.d. (10 days PO)
Protocol: Infected mice were dosed at 3, 10, or 25 mg/kg orally twice a day for 10 consecutive days. Two days after the termination of treatment, mice were euthanized, and the parasite burdens in their livers were determined.
Peripheral blood samples were obtained at 5, 15, 30 min, 1, 2, 4, 6 ,8 and 24 h after intravenous administration and 15, 30, 45 min,1, 2, 4, 6, 8 and 24 h after oral administration. Blood was 1/2 diluted with milliQ water and immediately frozen on dry ice until analysis. Quantification was performed by means of LC-MS/MS (API4000), with a lower limit of quantification of 1 ng/mL. […]
Data analysis and calculation of pharmacokinetic parameters was performed using Phoenix, WinNonLin Version 6.3. […]
For both intravenous and oral administration, the systemic exposures were determined by calculating the area under the blood concentration time curve (AUC) from the start of dosing to the last observed quantifiable concentration (AUC0-t) by using the linear up-log down trapezoidal rule. The slope of the terminal elimination phase was estimated by linear regression of the terminal data points (minimum 3 points) from a natural log concentration versus time plot of the data. The half-life (t1/2) of the terminal elimination phase was calculated as t1/2 = 0.693/λ.
7. In vivo efficacy in female Balb/C mice
To establish infection in mice, sodium stibogluconate-sensitive L. donovani (LV9, WHO designation: MHOM/ET/67/HU3) amastigotes were isolated from the spleen of a heavily infected donor hamster (Janvier, France)7. An inoculum containing 1.0 x 10^8 amastigotes/mL in Dulbecco’s modified eagles medium (high glucose) was prepared […]
and female BalbC mice (Harlan, UK) then infected intravenously via the tail vein with a 0.2 mL bolus (equivalent to ~2.0 x 10^7 amastigotes). Infection was left to establish for […]
daily orally as a suspension in 0.5% hydroxypropylmethylcellulose, 0.4% tween 80 and 0.5% benzyl alcohol. With twice daily regimens, the second daily dose was administered approximately 8 h following the first dose. Dose regimens evaluated were:
1. 50 mg/kg twice daily for 5 days
2. 25 mg/kg, 10 mg/kg and 3 mg/kg twice daily for 10 days
3. 25 mg/kg once daily for 10 days
Miltefosine, as the only oral treatment for visceral leishmaniasis, was used as a […]

L. donovani (LV9) [11] = tested on: L. donovani (LV9); set-up: method as in PMID 11353640; settings: similar mouse model, once daily; cited from earlier work
[12] = L. donovani amastigotes in differentiated THP-1 cells, read-out: Intramacrophage EC50

Question: Which CLint [1] does the source give for `O=C(Nc1cccc(-c2nc3ncccc3o2)c1)c1ccco1` [Compound 1] here?
Answer: 24 mL/min/g

Question: And the EC50 (THP-1 cells)?
Answer: > 50000 nM

Question: And the EC50 [2, 12]?
Answer: 5700 nM

Question: What about the solubility [3] of the same compound?
Answer: 58 µg/mL (≈ 190 µM)

Question: What about the EC50 (Trypanosoma cruzi) of the same compound?
Answer: 220 nM

Question: Which results are given for `O=C(Nc1cccc(-c2cn3cccnc3n2)c1)c1ccco1` [Compound 2]?
Answer: CLint [1]: 8.5 mL/min/g; EC50 (THP-1 cells): > 50000 nM; EC50 [2, 12]: 26000 nM; solubility [3]: ≥ 162 µg/mL; EC50 (Trypanosoma cruzi): 930 nM

Question: Which results are given for `O=C(Nc1ccc(F)c(-c2cn3nc(N4CCOCC4)cnc3n2)c1)N1CCCC1` [Compound 7a]?
Answer: CLint [1]: 0.91 mL/min/g; solubility (physchem): 24 µg/mL (≈ 58.3 µM); EC50 (THP-1 cells): > 50000 nM; EC50 ([2]; THP-1, read-out: Intramacrophage EC50): 410 nM; AMES [4]: not mutagenic; also recorded: negative; solubility [5]: 13 µg/mL (≈ 31.6 µM)

Question: Which “inhibition of chymotrypsin-like activity, RES II vs WT lysates” value [6] does the source give for `CC(C)C[C@H](NC(=O)[C@H](Cc1ccccc1)NC(=O)c1cnccn1)B(O)O` [bortezomib, reference compound] here?
Answer: equal potency

Question: What about the EC50 ([7]; RES I (compound 7-resistant clone)) of the same compound?
Answer: 28 ± 1.4 nM

Question: And the EC50 ([7]; RES III (compound 7-resistant clone))?
Answer: 32 ± 1.5 nM

Question: And the EC50 ([7]; WT promastigotes)?
Answer: 31 ± 1.5 nM

Question: And the “UbiQ-018 labelling of proteasome subunits” value (shortened to “UbiQ-018 labelling”) ([8]; L. donovani WT extracts)?
Answer: prevents labeling of proteasome subunits in all extracts

Question: And the “UbiQ-018 labelling” value ([8]; L. donovani-resistant RES II extracts)?
Answer: prevents labeling of proteasome subunits in all extracts

Question: And the “UbiQ-018 labelling” value [9]?
Answer: prevents labeling of proteasome subunits in all extracts

Question: With `CCCCCCCCCCCCCCCCOP(=O)([O-])OCC[N+](C)(C)C` [miltefosine, reference compound] as the compound, how does the “Reduction in parasite burden (compared to the vehicle control group)” value (L. donovani (LV9) [10]) read?
Answer: 99.9%

Question: And the ED90 (L. donovani (LV9) [11])?
Answer: 27 mg/kg
